Literature values, collected in paper PMC5040077 (The Korean Journal of Parasitology, 2016).

Legend:
[1] = system: Leishmania chagasi promastigotes
[2] = system: Trypanosoma cruzi trypomastigotes
[3] = system: HL-60; conditions: cancer cell line HL-60
[4] = system: SF-295; conditions: cancer cell line SF-295
[5] = system: MDA-MB-435; conditions: cancer cell line MDA-MB-435
[6] = system: HCT-8; conditions: cancer cell line HCT-8

| Structure (SMILES) | biological activity against Leishmania chagasi promastigotes [1] | activity against Trypanosoma cruzi trypomastigotes [2] | cytotoxicity against HL-60 [3] | cytotoxicity against SF-295 [4] | cytotoxicity against MDA-MB-435 [5] | cytotoxicity against HCT-8 [6] |
| --- | --- | --- | --- | --- | --- | --- |
| C[C@]12CC[C@H]3[C@@H](CC[C@]4(O)C[C@@H](O)CC[C@]34C=O)[C@@]1(O)CC[C@@H]2c1ccc(=O)oc1 [hellebrigenin, reference compound] | biological activity | active | – | – | – | – |
| C[C@]12CC[C@H](O)C[C@@]1(O)CC[C@@H]1[C@@H]2CC[C@]2(C)[C@@H](c3ccc(=O)oc3)CC[C@]12O [compound 1, telocinobufagin] | biological activity | only hellebrigenin was active | low cytotoxicity | low cytotoxicity | low cytotoxicity | low cytotoxicity |
